Laboratory results from US10975060B2, “High relaxivity gadolinium chelate compounds for use in magnetic resonance imaging” (BAYER PHARMA AKTIENGESELLSCHAFT, priority 2016, dated 2021).
Read-outs that look alike come from different tables or passages of the source.

Assays:
[1] = Pharmacokinetic parameters of blood plasma levels after i.v. bolus in male rats (three compartment model); type: in vivo, rats (Han-Wistar); conditions: i.v. bolus 0.1 mmol Gd/kg, mean, n=3
Experimental: Pharmacokinetic parameters of Example 6 were determined in male rats (Han-Wistar, 235-270 g, n=3). The compound was administered as a sterile aqueous solution (53.8 mmol Gd/L) as a bolus in the tail vein of the animals. The dose was 0.1 mmol Gd/kg. Blood was sampled 1, 3, 5, 10, 15, 30, 60, 90, 120, 240, 360, 480, and 1440 min post injection and the Gd concentration was determined by Inductively Coupled Plasma Mass Spectrometry (ICP-MS Agilent 7500a, Waldbronn, Germany). The blood level was converted to plasma concentrations by division by 0.625 (plasma fraction of rat blood, assuming strictly extracellular distribution). As a control, 3 animals (Han-Wistar, 248-289 g), were treated in the same way with Reference Compound 1 (Gadovist®), a low molecular weight contrast agent.
The fit of the obtained data to a three compartment model (Phoenix-WinNonlin) yielded the pharmacokinetic parameters which are shown in Table 3.

[2] = Contrast-enhanced magnetic resonance angiography (CE-MRA) at 1.5 T, intraindividual comparison; type: in vivo, New Zealand white rabbits; conditions: rabbits, 25 μmol Gd/kg bw versus standard dose 100 μmol/kg and example compound 6 at 25 μmol/kg
Experimental: Reference compound 1 (Gadovist®), as an approved representative of the Gadolinium-based MRI contrast agents, was used in both dose protocols (100 μmol Gd/kg bw and 25 μmol Gd/kg bw) and compared to example compound 6 (25 μmol Gd/kg bw).
The contrast-enhanced magnetic resonance angiography study was performed at a clinical 1.5 T Scanner (Magnetom Avanto Fit, Siemens Healthcare, Erlangen, Germany). For optimal signal exploitation, a spine in combination with a body-flex coil was used for the data acquisition. The study was performed on male New Zealand white rabbits (weight 3.6-3.9 kg, n=4, Charles River Kisslegg). The animals received all 3 contrast protocols within one imaging session. The order of the contrast protocols was randomized between the animals.
All animals are initially anesthetized using a body weight-adjusted intramuscular injection of a mixture (1+2) of xylazine hydrochloride (20 mg/mL, Rompun 2%, Bayer Vital GmbH, Leverkusen, Germany) and ketamine hydrochloride (100 mg/mL, Ketavet, Pfizer, Pharmacia GmbH, Berlin, Germany) using 1 mL/kg body weight. The continuous anesthesia of the intubated animals (endotracheal tube, Rueschelit Super Safe Clear, cuff 3.0 mm, Willy Ruesch A G, Kernen, Germany) is achieved by the intravenous injection of 0.9 mg propofol per kilogram per hour (10 mg/mL, Propofol-Lipuro 1%, B. Braun Melsungen A G, Melsungen, Germany). The continuous intravenous injection is performed using a MR infusion system (Continuum MR Infusion System, Medrad Europe B. V., A E Beek, Germany). The tracheal respiration (SV 900C, Maquet, Rastatt, Germany) is performed with 55% oxygen, forty breaths per minute, and a breathing volume of 4 mL per kilogram body weight per minute.
Based on a localizer MRI sequence oriented in coronal, axial, and sagittal directions the anatomic course of the aorta is acquired. A small intravenous test bolus (0.2 mL, Reference compound 1 followed by 1.3 mL saline) was administered to determine the time to peak interval (descending aorta) using a test bolus sequence. The MRA delay time between the start of the contrast injection and the start of image acquisition was calculated by subtracting the time to k-space center from the time to peak interval. For MRA a 3D FLASH sequence (TR=3.3 ms, TE=1.2 ms, flip=25°) was acquired before and after injection of the contrast agent considering the delay time. Both measurements were performed within expiratory breath hold. The time interval for the intraindividual comparison between the different contrast agent applications was twenty to thirty minutes.
Quantitative image evaluation was performed on the subtraction images (post contrast—baseline). […]

[3] = Dynamic CT diffusion phantom study (dialysis cassette in fetal bovine serum); type: physicochemical; conditions: dialysis cassette 20,000 MWCO, 20 mmol Gd/L, CT signal over 30 h
Experimental: The described dynamic CT diffusion study compares the ability of Examples 1-10 and Reference compounds 1 and 4 to pass a semipermeable membrane (20 kDa). A 128-row clinical CT device (SOMATOM Definition, 128; Siemens Healthcare, Forchheim, Germany) was used to monitor the diffusion through a semipermeable membrane at 100 kV and 104 mA. Single measurements were performed at 0 min, 1 min, 2 min, 3 min, 5 min, 10 min, 15 min, 20 min, 30 min, 45 min, 60 min, 2 h, 3 h, 5 h, 7 h, 22 h, 24 h, 30 h after placing the dialysis cassette (Slide-A-Lyser, 20,000 MWCO, 0.1-0.5 mL Capacity, Thermo Scientific, Roskilde, Denmark) filled with contrast agent in fetal bovine serum solution (FBS, Sigma, F7524). The images were reconstructed with a slice thickness of 2.4 mm and a B30 convolution kernel. The used concentration in the dialysis cassettes of the investigated Examples 1-10 and Reference compounds 1 and 4 was 20 mmol Gd/L.
The imaging results for all investigated Examples and the Reference compounds 1 and 4 for the time points 0 min and 30 h after placing the cassettes in the FBS solution are depicted in FIG. 1. For image analysis, regions of interest were manually drawn on 1 centrally located slice for each time point (a representative measurement region is indicated in FIG. 1: Image RC1).

[4] = 37 °C, cited from earlier work
[5] = Relaxivity measurements at 3.0 T (whole body MRI scanner, 37 °C) in water and human plasma; type: physicochemical; conditions: normalized to Gd, average ± standard deviation
Experimental: Relaxivity Measurements at 3.0 T
Relaxivity measurements at 3.0 T were performed with a whole body 3.0 T MRI Scanner (Philips Intera, Philips Healthcare, Hamburg, Germany) using a knee-coil (SENSE-Knee-8, Philips Healthcare, Hamburg, Germany). The sample tubes (CryoTubetm Vials, Thermo Scientific 1.8 mL, Roskilde, Denmark) were positioned in 3 rows of 4 and 5 tubes in a plastic holder in a box filled with water. The temperature was adjusted to 37° C. For the MRI sequence the shortest possible echo-time (TE) with 7.46 milliseconds was used. The inversion times were chosen to optimize the sequence to measure T1 values corresponding to the estimated T1 range of all relaxation times of contrast media containing solutions. The following inversion times (TIs) were applied: 50, 100, 150, 200, 300, 500, 700, 1000, 1400, 2100, 3200, and 4500 milliseconds. The sequence was run with a constant relaxation delay of 3.4 seconds after the registration of the last echo (variable TR in the range from 3450 to 7900 milliseconds). For details of the fit procedure, see Rohrer et. al. (Invest. Radiol. 2005; 40, 11: 715-724). The experimental matrix of the phantom measurement was 320×320.
The relaxivities were evaluated using three different concentrations of each compound (3 concentrations between 0.05 and 2 mM).
The T1 relaxation times of Example compounds were measured in water and human plasma. Human plasma preparation: For each experiment fresh blood was taken from a volunteer using 10 mL citrate-tubes (Sarstedt S-Monovette 02.1067.001, 10 mL, Citrate). The 10 mL citrate-tubes were carefully inverted 10 times to mix blood and anticoagulant and centrifuged for 15 minutes at 1811 g at room temperature (Eppendorf, Centrifuge 5810R).
The relaxivities ri (where i=1, 2) were calculated on the basis of the measured relaxation rates Ri in water and plasma: Ri=Ri(0)+ri[CGd], where Ri(0) represent the relaxation rate of the respective solvent and CGd the concentration of the compound normalized to the Gadolinium (Table 2).

[6] = Water solubility (exploratory, 10 mM Tris-HCl, 20 °C); type: physicochemical; conditions: water (10 mM Tris-HCl buffer), pH 7.4
Experimental: The exploratory water solubilities of the compounds were determined at room temperature (20° C.) in 0.5 mL buffer solution (10 mM Tris-HCl) in the microcentrifuge tubes (Eppendorf, 2.0 mL safe-lock caps). The solid compounds were added stepwise to the buffer solution. The suspension was mixed using a shaker (Heidolph Reax 2000) and treated 5 min in an ultrasound bath (Bandelin, Sonorex Super RK255H).

[7] = Relaxivity measurements at 1.4 T (MiniSpec mq60, 60 MHz, 37 °C) in water and human plasma; type: physicochemical; conditions: 1.41 T, normalized to Gd
Experimental: Relaxivity Measurements at 1.4 T
Relaxivity measurements at 1.41 T were performed using a MiniSpec mq60 spectrometer (Bruker Analytik, Karlsruhe, Germany) operating at a resonance frequency of 60 MHz and a temperature of 37° C. The T1 relaxation times were determined using the standard inversion recovery (IR) method with a fixed relaxation delay of at least 5×T1. The variable inversion time (TI) was calculated automatically by the standard software of the MiniSpec mq60 (8 steps). The T2 measurements were done by using a Carr-Purcell-Meiboom-Gill (CPMG) pulse sequence, applying a relaxation delay of at least 5×T1.
Each relaxivity measurement was performed using three different Gd concentrations (3 concentrations between 0.05 and 2 mM). The T1 and T2 relaxation times of the example compounds 1 to 10 were measured in different media for example in water and human plasma. Human plasma preparation: For each experiment fresh blood was taken from a volunteer using 10 mL citrate-tubes (Sarstedt S-Monovette 02.1067.001, 10 mL, Citrate). The 10 mL citrate-tubes were carefully inverted 10 times to mix blood and anticoagulant and centrifuged for 15 minutes at 1811 g at room temperature (Eppendorf, Centrifuge 5810R).
The relaxivities ri (where i=1, 2) were calculated on the basis of the measured relaxation rates Ri in water and plasma: Ri=Ri(0)+ri[CGd], where Ri(0) represent the relaxation rate of the respective solvent and CGd the concentration of the compound normalized to the Gadolinium. The Gadolinium concentrations of the investigated solutions were verified by Inductively Coupled Plasma Mass Spectrometry (ICP-MS Agilent 7500a, Waldbronn, Germany).

AUC∞ Area under the curve (to infinity) [1]	MRT Mean residence time [1]	V1 + V2 Volume, compartments V1 + V2 [1]	V2 Volume, compartment V2 [1]	Vd, ss Volume of distribution at steady state [1]	t½ α Half-life, compartment V1 [1]	t½ β Half-life, compartment V2 [1]	t½ γ Half-life, compartment V3 [1]	SMILES	vascular contrast at the reduced dose (25 μmol/kg) of the reference compound [2]	Diffusion half-live (20 kDa) [3]	r1 human plasma ([4]; 1.5 T, bovine plasma instead of human plasma, from Rohrer et al.)	r1 water ([4]; 1.5 T, from Rohrer et al.)	r1 human plasma ([4]; 3.0 T, plasma, reference compounds marked ^ (Rohrer et al., bovine plasma per Table 1 footnote))	r1 water ([4]; 3.0 T, reference compounds marked ^ (Rohrer et al. per Table 1 footnote))	r1 human plasma ([5]; human plasma)	r1 water ([5]; water)	Solubility [6]	r1 human plasma ([7]; human plasma)	r1 water ([7]; water)
11334 µmol·min/L	40.5 min	0.11 L/kg	0.16 L/kg	0.26 L/kg	1.80 min	22.1 min	780 min	O=C([O-])CN1CCN(CC(=O)[O-])CCN([C@H](CO)[C@H](O)CO)CCN(CC(=O)[O-])CC1.[Gd+3] (racemic) [RC1, gadobutrol, reference compound]	considerable lower	2.1 h	5.2 L/mmol/s	3.3 L/mmol/s	5.0 ± 0.3 L/mmol/s	3.2 ± 0.3 L/mmol/s					
								O=C([O-])CN1CCN(CC(=O)[O-])CCN(CC(=O)N(CC(=O)NCC(CNC(=O)CN(C(=O)CN2CCN(CC(=O)[O-])CCN(CC(=O)[O-])CCN(CC(=O)[O-])CC2)C2CCCC2)(CNC(=O)CN(C(=O)CN2CCN(CC(=O)[O-])CCN(CC(=O)[O-])CCN(CC(=O)[O-])CC2)C2CCCC2)CNC(=O)CN(C(=O)CN2CCN(CC(=O)[O-])CCN(CC(=O)[O-])CCN(CC(=O)[O-])CC2)C2CCCC2)C2CCCC2)CCN(CC(=O)[O-])CC1.[Gd+3].[Gd+3].[Gd+3].[Gd+3] [Example 8, Tetragadolinium [4,10-bis(carboxylatomethyl)-7-{3,13-dicyclopentyl-8,8-bis({[(cyclopentyl{[4,7,10-tris(carboxylatomethyl)-1,4,7,10-tetraazacyclododecan-1-yl]acetyl}-amino)acetyl]amino}methyl)-2,5,11,14-tetraoxo-15-[4,7,10-tris(carboxylatomethyl)-1,4,7,10-tetraazacyclododecan-1-yl]-3,6,10,13-tetraazapentadec-1-yl}-1,4,7,10-tetra-azacyclododecan-1-yl]acetate]		10.5 h					12.0 ± 0.4 L/mmol/s	10.7 ± 0.1 L/mmol/s	>1000 mg/100 mL	14.1 L/mmol/s	11.7 L/mmol/s
